Like-named read-outs stand apart in the source and are kept apart here.
What was measured:
[1] = tested on: MDA-MB-231 human breast cells; experiment: Antiproliferative activity / cell viability (MTS, 72 h); settings: Homo sapiens
Experimental: (§1) The relative number of the live cells was determined using the CellTiter® 96 AQueous One Solution Cell Proliferation Assay (Promega). Determinations were made in duplicates or triplicates.
Human breast cancer MDA-MB231, liver cancer HepG2 and lung fibroblast cells were purchased from ATCC (Rockville, Md.). MDA-MB231 cells and IMR-90 cells were grown in DMEM (Sigma Aldrich, Singapore) and EMEM (Sigma Aldrich, Singapore) respectively at 37° C., 5% CO2. DMEM was supplemented with 10% fetal bovine serum (Invitrogen, heat treated at 65 deg C., 30 min), 50 units/L penicillin-G and 50 μg/mL streptomycin. EMEM was supplemented with 10% fetal bovine serum (heat treated as above), 100 mg/L penicillin-G and 100 μg/mL streptomycin.
Cell viability was assessed using CellTitre 96® Aqueous One Solution (Promega, Madison, Wis.) containing the tetrazolium salt 3-(4,5-dimethylthiazol-2-yl)-5-(3-carboxymethoxyphenyl)-2-(4-sulfophenyl)-2H-tetrazolium (MTS). […] Final concentration of DMSO per well was maintained at 0.5% v/v. […] Cell viability was determined from the expression:
The plot was constrained to ≧0 and ≦100%. At least 3 independent determinations of IC50 were made using two different stock solutions of test compound.

[2] = In vitro stability in rat liver microsomes; type: in vitro ADME; settings: for Half-life (min) / Intrinsic Clearance (μL/min/mg): NADPH; for half-life / microsomal CLint: male, pooled rat liver microsomes, pH 7.4, NADPH; for microsomal CLint: read-out: Intrinsic Clearance
Experimental: The mixture was preincubated for 5 min at 37° C. in a shaking water bath, after which the reaction was initiated by adding […] of 10 mM NADPH (freshly prepared in phosphate buffer) to give a final concentration of 1 mM NADPH in the mixture. Aliquots of 50 μL were withdrawn immediately on addition of NADPH (time 0) and subsequently at 5, 15, 30 and 45 min. […] The mixture was then centrifuged at 10,000×g to remove the protein and the content of the test compound in the supernatant was subsequently measured by LCMS.
For each test compound, the metabolic stability of a positive control, midazolam (5 μM) which is a known cytochrome P450 substrate, was concurrently determined to evaluate the adequacy of the experimental conditions. The stability of the test compound to microsomal degradation in the absence of NADPH was also monitored.
Separations were made on a C18 column (Luna 3u C18(2) 100A column (2.0×50 mm, i.d., 3 μM, Phenomenex, Aschaffenburg, Germany or Eclipse Plus C18 column, 4.6×150 mm, i.d., 3.5 μM Agilent Technologies, Palo Alto, Calif., USA) with a security guard cartridge (3.0×4 mm, Agilent Technologies, Palo Alto, Calif., USA). Mobile phase was 0.1% formic acid in acetonitrile-water as mobile phase. Flow rate was set at 0.2 or 0.6 mL/min and the column temperature was at 30° or 40° C. 2 or 5 μL full loop sample injection was used.
Data processing was performed with Analyst™ 1.4.2 software package (Applied Biosystems, MA., USA). The corresponding MRM transition of this candidate was selected and used for peak configuration in Analyst 1.4.2 for semi-quantitation. The peak areas of test compound at different time points were expressed as a % of the peak area of test compound at time=0 min. The resulting % of intact (or remaining) test compound (average of 3 measurements with SD) was plotted against incubation time drug (Figure xx). In vitro half life (T1/2, min) was calculated from Equation 3 (Lu C, Li P, Gallegos R, Uttamsingh V, Xia C Q, Miwa G T, et al. Comparison of intrinsic clearance in liver microsomes and hepatocytes from rats and humans: evaluation of free fraction and uptake in hepatocytes. Drug Metab Dispos 2006; 34: 1600-5). T1/2=0.693/k(min) Equation 3: Where k is the slope of the plot Estimated in vitro clearance was determined from Equation 4: CLint, in vitro=V×0.693/T½ Equation 4: where V (μL/mg)=Volume of incubation/amount of microsomal protein in the incubation (μL/mg) Ames Test for Mutagenicity

[3] = target: T1, Isoprenylcysteine carboxyl methyltransferase (Icmt) (Homo sapiens, UniProt O60725); experiment: Icmt inhibition, scintillation proximity assay with BFC and [3H]SAM; type: biochemical; settings: for IC50: read-out: IC50 Icmt
T1 construct: made in house; host or cells: Sf9 (Spodoptera frugiperda) insect cells; membrane preparation provided by Prof PJ Casey (Duke University / Duke-NUS)
Experimental: Isoprenylcysteine carboxyl methyltransferase (Icmt) was provided by Prof PJ Casey of Duke University, NC. S-Adenosylmethionine (SAM), magnesium chloride Hexahydrate (MgCl2), tartrazine, 4-(2-hydroxyethyl)-1-piperazineethanesulfonic acid (HEPES), dimethyl sulfoxide (DMSO) and dithiotreitol (DTT) were purchased from Sigma (Mo, USA). [^3H] S-Adenosylmethionine, [^3H] Biotin and Streptavidin PVT SPA Beads were purchased from PerkinElmer (Waltham, Mass.). Assays were performed in black small volume 384 well microtitre plates from PerkinElmer.
Stocks of Icmt membrane protein (30 μg/μL) stored at −80° C. were thawed at 37° C. and placed on ice. The Icmt membrane protein was diluted in assay buffer (70 mM HEPES, 100 mM NaCl, 5 mM Mg Cl2 and 3 mM DTT, pH 7.5) to a 0.03 μg/μL working concentration and added to the wells of a microtitre plate (5 μl/well). To each wells 20 μl of the reaction buffer was added. The reaction was initiated with the addition of 5 μL of substrate solution containing BFC (6 μM), SAM (3 μM) and 30 μCi/mL [^3H] SAM (all of these reagents were stored at −20° C., SAM reagents thawed on ice, BFC thawed at RT). The plate was incubated at 37° C. for 30 minutes. The reaction was stopped with the addition of 15 μL of stop solution containing SAM (150 μM) and Streptavidin SPA beads (20 mg/mL). Following overnight incubation at ambient temperature radioactivity was counted on a Microbeta Trilux™ (Perkin Elmer, Turku, Finland).
Sf9 (Spodoptera frugiperda ovarian) membranes containing recombinant Icmt were provided by Prof PJ Casey (Duke University, NC and Duke-NUS Graduate Medical School). S-Adenosylmethionine (SAM), magnesium chloride hexahydrate, tartrazine, 4-(2-hydroxyethyl)-1-piperazineethanesulfonic acid (HEPES) and dithiotreitol (DTT) were purchased from Sigma (Mo, USA). [^3H] S-Adenosylmethionine, [^3H] biotin and streptavidin PVT SPA Beads were purchased from PerkinElmer (Waltham, Mass.). Biotinylated farnesylcysteine was synthesized as described in an earlier report. Assays were performed in black 384-well microtitre plates from PerkinElmer.
A vial of Icmt membrane protein (30 μg/μL) stored at −80° C. was thawed at 37° C. and placed on ice. The protein was diluted in assay buffer (70 mM HEPES, 100 mM NaCl, 5 mM MgCl2, 3 mM DTT, pH 7.5) to 0.03 μg/μL and aliquots were added to each well (5 μL/well), followed by 20 μL of the assay buffer. The reaction was initiated by adding 5 μL of a solution containing biotinylated BFC (6 μM), SAM (3 μM) and 30 μCi/mL [^3H] SAM. These reagents were stored at −20° C. and thawed on ice (SAM, [^3H] SAM) or at room temperature (BFC). The plate was incubated at 37° C. for 30 minutes after which the reaction was quenched by adding 15 μL of a solution comprising SAM (150 μM) and streptavidin SPA beads (20 mg/mL). After overnight incubation at ambient temperature, radioactivity was counted (Microbeta Trilux™, Perkin Elmer, Turku, Finland). The degree of inhibition was assessed from the radioactivity obtained in presence of test compound compared to that obtained from the control sample […]. Two independent determinations were made for each test compound.

[4] = tested on: PC3 Prostrate cancer cells; experiment: Antiproliferative activity / cell viability (MTS, 72 h); type: cell-based, human; settings: Homo sapiens
Experimental: as §1

[5] = MDA-MB-231, 72 h, read-out: IC50 MDA-MB-231 (μM)
[6] = MDA-MB-231, 72 h, read-out: IC50MDA-MB-231 (μM)
[7] = MDA-MB-231, read-out: IC50 (μM) MDA MB 231
[8] = Table 3, mean of two or more determinations (SD)
[9] = PC-3M, Table 3, 72 h, mean (SD), read-out: IC50 PC3
[10] = Table 6, from earlier table, read-out: IC50 (μM) PC3

T1 sequence (O60725 whole entry, species assumed): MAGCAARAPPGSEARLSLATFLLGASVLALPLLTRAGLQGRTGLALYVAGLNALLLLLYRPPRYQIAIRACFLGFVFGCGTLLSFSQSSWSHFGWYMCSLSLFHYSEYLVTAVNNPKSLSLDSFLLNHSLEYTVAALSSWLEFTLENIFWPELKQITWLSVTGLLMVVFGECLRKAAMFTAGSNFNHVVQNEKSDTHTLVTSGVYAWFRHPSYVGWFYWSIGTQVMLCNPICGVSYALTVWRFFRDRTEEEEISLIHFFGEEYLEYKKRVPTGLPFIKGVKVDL

Compound	IC50 [1, 5]	IC50 [1, 6]	IC50 [1, 7]	Half-life (min) [2]	Intrinsic Clearance (μL/min/mg) [2]	half-life [2]	microsomal CLint [2]	IC50 [3, 8]	IC50 ([3]; further testing, mean (SD))	IC50 [4, 9]	IC50 [4, 10]	fold higher IC50 Icmt than cysmethynil ([3]; ratio of IC50 Icmt)
CCCCCCCCn1cc(CN(CC)CC)c2cc(-c3cnc(N)nc3)ccc21 [Compound 8-12, 5-(3-Diethylaminomethyl-1-octyl-1H-indol-5-yl)-pyrimidin-2-ylamine]	2.48 µM	2.63 µM	2.63 µM	11.3 (0.4) min	204.0 (9.0) μL/min/mg	11.3 min	204 µL/min/mg	780 nM	860 nM	2.55 µM	2.55 µM	–
CCCCCCCCn1c2c(c3cc(-c4cnc(N)nc4)ccc31)CN(C)CC2 [Compound 305, 8-(2′-amino-pyrimidin-5′-yl)-2-methyl-5-n-octyl-1,2,3,4-tetrahydropyrido[4,3-b]indole]	5.65 µM	4.61 µM	–	–	–	31.6 min	76.6 µL/min/mg	3300 nM	–	4.31 µM	–	about 2
CCCCCCCCn1cc(CC(N)=O)c2cc(-c3cccc(C)c3)ccc21 [Cysmethynil, 2-[5-(3-methylphenyl)-1-octyl-1H-indolo-3-yl]acetamide, reference compound]	27.4 µM	26.8 µM	27.4 µM	44.8 (8.0) min	53.6 (9.0) μL/min/mg	44.8 min	53.6 µL/min/mg	1800 nM	1900 nM	24.8 µM	25.2 µM	–

Source: patent publication US9422238B2, “ICMT inhibitors” (National University of Singapore, priority 2012, dated 2016)
